Legend:
NCIH460 (lung) cells = test: Anti-cancer screen (MTT), NCIH460; assay type: cell-based; details: Homo sapiens, NCI-H460, NCIH460, 48 hours, MTT; for GI50: read-out: Cell growth inhibition NCIH460 (Lung) GI50; for LC50: read-out: Cell growth inhibition NCIH460 (Lung) LC50; for IC (TGI): read-out: Cell growth inhibition NCIH460 (Lung) TGI
Procedure, shortened: (§1)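 5×10^4 cells/mL, DMEM + 10% FBS, 24 h attach, 37 °C/5% CO2. Cpds 0.01–100 μM (5 conc., triplicate), 48 h. MTT 3 h → DMSO → A570; T0 plate read at dosing.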

[1] = test system: HDAC (Mouse Liver Extract); test: HDAC inhibition assay using Boc-Lys(Ac)-AMC substrate; assay type: biochemical; details: mouse liver enzyme
Procedure, shortened: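 Released AMC measured at 360 nm excitation, 460 nm emission after 15-30 min trypsin development at 37° C. Preceding deacetylation: mouse liver extract with acetylated-lysine AMC substrate, 30 min at 37° C after 5-min preincubation; blanks were buffer alone and substrate alone.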

U251 (glioma) cells = test: Anti-cancer screen (MTT), U251; assay type: cell-based; details: Homo sapiens, U-251, U251, 48 hours, MTT; for GI50: read-out: Cell growth inhibition U251 (Glioma) GI50; for LC50 (concentration giving 50% net cell kill relative to the time-zero cell count): read-out: Cell growth inhibition U251 (Glioma) LC50; for IC (TGI): read-out: Cell growth inhibition U251 (Glioma) TGI
Procedure, shortened: as §1

[2] = test system: NCIH460, HCT116 and U251 cells; test: Anti-cancer screen, mean GI50 over cell lines; assay type: cell-based; details: mean over cell lines; read-out: Cell growth inhibition Mean GI50
Procedure, shortened: as §1

HCT 116 (colon) cells = test: Anti-cancer screen (MTT), HCT 116; assay type: cell-based; details: Homo sapiens, HCT-116, HCT116, 48 hours, MTT; for GI50: read-out: Cell growth inhibition HCT116 (Colon) GI50; for CC50: read-out: Cell growth inhibition HCT116 (Colon) LC50; for IC (TGI): read-out: Cell growth inhibition HCT116 (Colon) TGI
Procedure, shortened: as §1

SMILES	GI50 (NCIH460 (lung) cells) [µM]	LC50 (NCIH460 (lung) cells) [µM]	IC (TGI) (NCIH460 (lung) cells) [µM]	HDAC inhibition % (1 μM) [1] [%]	HDAC inhibition % (10 μM) [1] [%]	GI50 (U251 (glioma) cells) [µM]	LC50 (concentration giving 50% net cell kill relative to the time-zero cell count) (U251 (glioma) cells) [µM]	IC (TGI) (U251 (glioma) cells) [µM]	GI50 [2] [µM]	GI50 (HCT 116 (colon) cells) [µM]	CC50 (HCT 116 (colon) cells) [µM]	IC (TGI) (HCT 116 (colon) cells) [µM]	IC50 [1] [µM]
O=C(NCc1ccc(C(=O)NO)cc1)/C(=C/c1c(F)cc(F)cc1F)c1ccc(F)cc1 [Compound 54, 4-((2-(4-Fluorophenyl)-3-(2,4,6-trifluorophenyl)acrylamido)methyl)-N-hydroxybenzamide]	8	68	24	67.5	89.8	19	64	25	10.5	4.4	59	20	–
CSc1ccc(/C=C(/C(=O)NCc2ccc(C(=O)NO)cc2)c2ccccc2Cl)cc1 [Compound 56, 4-((2-(2-Chlorophenyl)-3-(4-methylthiophenyl)acrylamido)methyl)-N-hydroxybenzamide]	> 100	> 100	> 100	7.7	8.0	0.1	> 100	0.1	> 100	> 100	> 100	> 100	–
CSc1ccc(/C=C(/C(=O)NCc2ccc(C(=O)NO)cc2)c2ccsc2)cc1 [Compound 59, 4-((2-(Thiophen-3-yl)-3-(4-methylthiophenyl)acrylamido)methyl)-N-hydroxybenzamide]	2.3	30	7	76.6	96.3	1.5	65	5.5	2.3	3	60	15	0.03
COc1cc(/C=C(/C(=O)NCc2ccc(C(=O)NO)cc2)c2ccc(F)cc2)ccc1F [Compound 60, 4-((2-(4-Fluorophenyl)-3-(4-fluoro-3-methoxyphenyl)acrylamido)methyl)-N-hydroxybenzamide]	25	80	50	66.6	95.0	17	99	38	17.3	10	81	50	–
COc1ccc(/C=C(/C(=O)NCc2ccc(C(=O)NO)cc2)c2ccc(C)cc2)cc1OC [Compound 62, 4-((2-(4-Methylphenyl)-3-(3,4-dimethoxyphenyl)acrylamido)methyl)-N-hydroxybenzamide]	> 100	> 100	> 100	83.2	100.0	> 100	> 100	> 100	90	90	> 100	> 100	–
COc1ccc(/C=C(/C(=O)NCc2ccc(/C=C/C(=O)NO)cc2)c2ccc(F)cc2)cc1OC [Compound 77, (1E)-N-(4-(3-(Hydroxyamino)-3-oxoprop-1-enyl)benzyl)-2-(4-fluorophenyl)-3-(3,4-dimethoxyphenyl)acrylamide]	2	> 100	70	90.6	98.5	2.6	> 100	19	1.7	0.5	50	6	0.05
COc1ccc(/C=C(/C(=O)NCc2ccc(/C=C/C(=O)NO)cc2)c2ccccc2F)cc1OC [Compound 78, (1E)-N-(4-(3-(Hydroxyamino)-3-oxoprop-1-enyl)benzyl)-2-(2-fluorophenyl)-3-(3,4-dimethoxyphenyl)acrylamide]	2	> 100	> 100	87.6	91.3	1	> 100	8	2.3	4	> 100	30	–
CSc1ccc(/C=C(/C(=O)NCCCCCCC(=O)NO)c2ccc(F)cc2)cc1 [Compound 84, 7-(2-(4-Fluorophenyl)-3-(4-methylthiophenyl)acrylamido)-N-hydroxy heptanamide]	2.3	70	21	90.0	94.3	4.2	95	21	2.6	1.2	> 100	21	0.06
O=C(CCCCCCNC(=O)/C(=C\c1ccccc1)c1ccccc1)NO [Compound 85, (2Z)-7-(2,3-Diphenylacrylamido)-N-hydroxy heptanamide]	3.3	75	25	79.3	95.8	4.8	80	27	3.7	3.1	> 100	23	0.38
CS(=O)(=O)c1ccc(/C=C(/C(=O)NCCCCCC(=O)NO)c2ccc(F)cc2)cc1 [Compound 87, 6-(2-(4-Fluorophenyl)-3-(4-methylsulfonylphenyl)acrylamido)-N-hydroxy hexanamide]	> 100	> 100	> 100	43.6	81.6	20	> 100	> 100	> 100	44	> 100	88	–
O=C(CCCCCNC(=O)/C(=C/c1ccccc1)c1ccccc1)NO [Compound 88, 6-(2,3-Diphenylacrylamido)-N-hydroxy hexanamide]	21	91	57.5	81.5	95.4	7.8	78	37.5	11.3	5	> 100	22.5	–
O=C(CCCCCNC(=O)/C(=C/c1c(F)cc(F)cc1F)c1ccc(F)cc1)NO [Compound 89, 6-(2-(4-Fluorophenyl)-3-(2,4,6-trifluorophenyl)acrylamido)-N-hydroxy hexanamide]	3	45	13	64.9	97.6	4	81	6.7	3.7	4	83	10	0.03
CSc1ccc(/C=C(/C(=O)NCCCCCC(=O)NO)c2ccsc2)cc1 [Compound 90, 6-(2-(Thiophen-3-yl)-3-(4-methylthiophenyl)acrylamido)-N-hydroxy hexanamide]	0.1	30	5	78.2	98.9	0.8	82	6.1	1.3	3	> 100	6	0.04
COc1cc(/C=C(/C(=O)NCCCCCC(=O)NO)c2ccc(F)cc2)ccc1F [Compound 91, 6-(2-(4-Fluorophenyl)-3-(4-fluoro-3-methoxyphenyl)acrylamido)-N-hydroxy hexanamide]	46	> 100	> 100	80.8	97.3	2	92	30	22.3	19	> 100	> 100	–
